Data as given in patent US20210052741A1, “GENE THERAPY METHODS AND COMPOSITIONS USING AUXOTROPHIC REGULATABLE CELLS” (AUXOLYTIC LTD, priority 2018, published 2021).
Where “and” joins values, the source holds several entries; their conditions need not be identical. Identical values can stand only once.

Columns and labels:
UMPS edited T cells = test: TIDE analysis of UMPS InDels in mixed UMPS edited population; assay type: cell-based, human
Experimental: Sanger sequencing of the UMPS locus was performed using UMPS-O-1 and UMPS-O-2, with the region amplified using PHUSION™ Hot Start Flex 2x Master Mix (New England Biolabs, Inc.). Sanger sequencing traces were analyzed by TIDE analysis (see, Brinkman et al, 2014, Nucleic Acids Res. 42(22):e168), which is hereby incorporated by reference in its entirety) to identify insertions and deletions (InDels) after editing. InDel quantification was performed on the sequences using the TIDE online tool (www.deskgen.com/landing/tide.html) (See, M. Sadelain, N. Engl. J. Med. 365, 1735-7 (2011), which is hereby incorporated by reference in its entirety.
T Cells were electroporated and edited as in Example 2 and allowed to recover for a 4-day period in medium with serum, uridine, and UMP. On day 4, cells were shifted to UMP, uridine, or uracil source media. […]
To confirm the results on the genomic level, genomic DNA was harvested at the end of the experiment and InDels were quantified (FIG. 5D-FIG. 5E). FIG. 5D compares the frequency of InDels in different culture conditions for cells not exposed to 5-FOA.

CCR5 knockout T cells = test: Growth time course with/without UMP or uridine; assay type: cell-based, human; conditions: metabolite 250 μg/ml
Experimental: (§1) Genomic DNA was harvested using QUICKEXTRACT™ DNA Extraction Kit (Epicentre). Cells were counted on an automated cell counter using Trypan blue staining or on a CytoFLEX flow cytometer (Beckman Coulter) with automatic plate reader using COUNTBRIGHT™ beads (ThermoFisher) as a reference for normalizing the values. Alternatively, cells were analyzed after staining with fluorochrome-labelled antibodies (Biolegend) on an ACCURI™ C6 flow cytometer (BD Biosciences), which also measures volumes, or a FACS ARIA™ II SORP cell sorter (BD Biosciences). Data was analyzed using Excel (Microsoft) and FlowJo software (Tree Star).
(§2) T Cells were electroporated and edited as in Example 2 and allowed to recover for a 4-day period in medium with serum, uridine, and UMP. On day 4, cells were shifted to UMP, uridine, or uracil source media.
(§3) To evaluate whether the UMPS knockout leads to differential cell proliferation if cultured without the addition of Uridine or Uridine monophosphate (UMP), the cell counts in culture were followed over time by automatic cell counting with Trypan blue staining. UMPS knockout led to lower cell counts from day 2 after electroporation, compared to cells that were mock electroporated or electroporated using Cas9 targeting a different genomic locus (i.e., CCR5) (FIG. 5B).

Mock T cells [1] = test: Growth time course with/without UMP or uridine; assay type: cell-based, human; conditions: metabolite 250 μg/ml
Experimental: as §1, §2, §3

UMPS knockout T cells [2] = test: Growth time course with/without UMP or uridine; assay type: cell-based, human
Experimental: as §1, §2, §3

UMPS-7 targeted T cells = test: 5-FOA selection, cell counts after 4 days; assay type: cell-based, human
Experimental: (§4) 5-FOA selects for uracil auxotrophic cells in other organisms (e.g. Boeke et al. 1984, Mol. Gen. Genet. 197(2):345-6), which is hereby incorporated by reference in its entirety). To investigate the potential utility of 5-FOA for the selection of uracil auxotrophs among human cells, the UMPS gene was targeted in human T cells by Cas9-gRNA complex electroporation followed by recovery (as shown in Example 2) followed by an assay of resistance to 5-FOA treatment (FIG. 3A). Cells were grown in 5-FOA and a variety of combinations of serum and uracil sources for 4 days before cell counting was performed.

Mock T cells [3] = test: 5-FOA selection, cell counts after 4 days; assay type: cell-based, human
Experimental: as §4

UMPS knockout T cells [4] = test: Uracil auxotrophy growth assay after 5-FOA selection; assay type: cell-based, human; conditions: after 4 days 5-FOA selection, 4 days in supplemented media, without serum
Experimental: To assay whether or not the cells selected for by 5-FOA treatment were uracil auxotrophs, mock or UMPS targeted T cells were exposed to 5-FOA as shown in Example 4. Following 4 days of 5-FOA selection, the population of cells was split into an uracil containing media (UMP, uridine or both) and an uracil deficient media. A growth assay was subsequently performed by cell counting after following 4 days incubation in test media (Day 8) (FIG. 4A). In all cases, cell growth in the mock targeted cell cultures was negligible and independent of uracil source supplementation—indicating successful killing of non-UMPS targeted cells during the 5-FOA selection step (FIG. 4B-FIG. 4D).

[5] = test system: UMPS^KO/KO engineered hES cells; test: Teratoma formation from engineered hES cells; assay type: in vivo, NSG mice
Experimental: To determine whether the safety switch can eradicate teratomas that originate from pluripotent cells, iPSCs or ES cells that were genetically modified (or control cells) were transplanted into mice. The cells expressed luciferase for in vivo detection. 1×10^6 UMPS-engineered hESCs were resuspended in a 100 μl of […]® protein mixture (Corning, Inc.) and PBS mixture and injected into the gastrocnemius muscle of the right hind leg of anesthetized NSG mice. The mice were followed up for tumor formation by tumor size measurement and by bioluminescence imaging. After establishment of tumors, whether withdrawal of Uridine triacetate (UTA) led to tumor regression was tested. At the endpoint (tumor sizes above 1.7 cm or impairment of mouse activity, otherwise 24 weeks) tumor was explanted and fixated for histological analysis.
Auxotrophic cell proliferation of the UMPS^KO/KO engineered hES cells in vivo was also analyzed. […] Bone marrow is analyzed at the time that the animal dies or is sacrificed (latest 16 weeks after injection). […] Groups were compared by statistical tests as indicated using Prism 7 (GraphPad).

[6] = test system: UMPS wild-type K562 cells; test: K562 xenograft model, bioluminescence imaging; assay type: in vivo, NSG mice; conditions: subcutaneous xenograft, normal or UTA supplemented food
Text: (§5) For the K562 xenograft assay, 6 to 12 weeks old male NOD SCID gamma mouse (NSG) mice were transplanted with 1×10^6 K562 cells resuspended in […]® protein mixture (Corning, Inc.) 1:1 diluted with PBS under anesthesia. All animals were kept and handled according to institutional guidelines and the experimental protocol was approved by Stanford University's Administrative Panel on Laboratory Animal Care.
(§6) The previously engineered UMPS^KO/KO K562 cell line expressing firefly luciferase (FLuc) was used in a xenograft model in NSG mice. […] Cas9 RNP is targeted to exon 1 of the HBB locus with a guide RNA and a DNA donor template transduced by rAAV6 which carries a FLuc-2A-GFP-polyA cassette under control of the SFFV promoter. FACS analysis was performed four days after targeting of K562 cells to evaluate GFP expression before sorting of the GFP+ population. In a control group administered the AAV only, 1.61% of the cells were GFP+, and […].
(§7) UTA was acquired from Accela ChemBio Inc. and added to make the 8% (w/w) to Teklad mouse food (Envigo) and the food irradiated before use. […]
(§8) UMPS^KO/KO K562 cells or control cells were transplanted subcutaneously and observed weekly with bioluminescence imaging. Luminescence imaging of K562 cells was performed 5 minutes after intraperitoneal (ip) injection of 125 mg/kg D-Luciferin (PerkinElmer) on an IVIS Spectrum imaging system (PerkinElmer). […]

UMPS^KO/KO K562 cells = test: K562 xenograft model, bioluminescence imaging; assay type: in vivo, NSG mice; conditions: subcutaneous xenograft, food with 8% UTA vs food without UTA
Text: as §5, §6, §7, §8

[7] = cited from earlier work
UMPS locus = test: InDel quantification by ICE and ICE-D in activated T cells; assay type: cell-based, human; conditions: for ICE InDels (%) / ICE-D InDels (%): Cas9 RNP electroporated into activated T cells, 4 days
Text: sgRNAs were acquired with chemical modifications from Synthego Corporation. The sgRNAs were complexed with Cas9 protein (IDT) at a molar ration of 2.5:1 (sgRNA:protein) and electroporated into activated T cells using a 4D-NUCLEOFECTOR™ system (Lonza). 4 days later, cells were harvested, and genomic DNA extracted using QUICKEXTRACT™ DNA Extraction Kit (Epicentre) according to the manufacturer's protocol. The sgRNA target site was amplified with specific primers (Table 18) and the amplicon sequenced by Sanger sequencing (MCLab, South San Francisco).
InDel quantification was performed on the sequences using the interference of CRISPR edits (ICE) and ICE-D online tools (ice.synthego.com) (FIG. 5A).

[8] = cells not exposed to 5-FOA, end of experiment, metabolite 250 μg/ml
[9] = UMPS knockout, metabolite 250 μg/ml

## O=c1ccn([C@@H]2O[C@H](COP(=O)(O)O)[C@@H](O)[C@H]2O)c(=O)[nH]1 [UMP, Uridine monophosphate]
UMPS edited T cells; TIDE, day 8, metabolite 250 μg/ml
  Alleles with frameshift InDels, Percent of alleles (without 5-FOA): 46.1%
UMPS edited T cells; TIDE, metabolite 250 μg/ml
  Alleles with InDels, Percent of alleles (without 5-FOA): 71.1%
UMPS edited T cells; [8]
  frameshift InDel frequency, Percent: 46.1%
  overall InDel frequency, Percent (%): 71.1%
UMPS edited T cells; day 8, metabolite 250 μg/ml
  Predicted viable cell counts, Cells with In-frame InDel: 908000
  Predicted viable cell counts, Cells with frameshift InDel: 1670000
  Predicted viable cell counts, Cells without InDel: 1049070
CCR5 knockout T cells
  Cell density, Day 1: 1.02E+06 cells per ml
  Cell density, Day 2: 1.80E+06 cells per ml
  Cell density, Day 4: 3.32E+06 cells per ml
  Cell density, Day 6: 3.80E+06 cells per ml
  Cell density, Day 8: 4.03E+06 cells per ml
Mock T cells [1]
  Cell density, Day 1: 9.83E+05 cells per ml
  Cell density, Day 2: 2.01E+06 cells per ml
  Cell density, Day 4: 3.80E+06 cells per ml
  Cell density, Day 6: 4.18E+06 cells per ml
  Cell density, Day 8: 3.90E+06 cells per ml
UMPS knockout T cells [2]; [9]
  Cell density, Day 1: 8.74E+05 cells per ml
  Cell density, Day 2: 1.86E+06 cells per ml
  Cell density, Day 4: 3.47E+06 cells per ml
  Cell density, Day 6: 3.88E+06 cells per ml
  Cell density, Day 8: 3.63E+06 cells per ml
  Number of viable cells per ml, Day 1: 874000 cells per ml
  Number of viable cells per ml, Day 2: 1860000 cells per ml
  Number of viable cells per ml, Day 4: 3470000 cells per ml
  Number of viable cells per ml, Day 6: 3880000 cells per ml
  Number of viable cells per ml, Day 8: 3630000 cells per ml
UMPS knockout T cells [2]; exogenous uracil source 250 μg/ml
  growth of UMPS edited culture: rescued the growth of an UMPS edited culture to the same level as mock edited cells
UMPS knockout T cells [2]; supplemented at 250 μg/ml
  cell proliferation after UMPS knockout: not impaired
UMPS-7 targeted T cells; UMPS targeted cells
  survival in 5-FOA compared to control: improved the survival
UMPS-7 targeted T cells; UMPS-7, 4 days in 5-FOA without serum, with substrate
  Average of cells per volume unit: 58299.26 cells per volume unit
Mock T cells [3]; Mock, 4 days in 5-FOA without serum, with substrate
  Average of cells per volume unit: 24770.99 cells per volume unit
Mock T cells [3]; mock treated cells
  survival in 5-FOA compared to control: improved the survival
UMPS knockout T cells [4]
  Cells counts on Day 8: 9978 and 6392

## CC(=O)OC[C@H]1O[C@@H](n2ccc(=O)[nH]c2=O)[C@H](OC(C)=O)[C@@H]1OC(C)=O [UTA, uridine triacetate]
[5]; NSG mice fed 8% (w/w) UTA food, 7 weeks after cell injection into hind leg, per mouse
  Teratoma weight, Weight [g]: 3.11 g and 0.033 g and 2.92 g and 1.54 g and 0.937 g
[5]; mice fed with UTA, 7 weeks after cell injection
  teratoma formation: large teratomas
[6]
  tumor burden of UMPS wild-type K562 cells: increase in tumor burden
UMPS^KO/KO K562 cells
  luminescence of UMPS^KO/KO K562-derived tumors: only increased in the mice fed with 8% UTA
[7]; humans and mouse models, administration of prodrug
  increase of uridine serum levels: greater than 10 fold
[7]; mice, food enriched with 8% (w/w) UTA
  tolerability: well tolerated

## UMPS-3: sgRNA for UMPS exon 1, target sequence + PAM CCCCGCAGATCGATGTAGAT GGG (SEQ ID NO: 4) (guide CCCCGCAGATCGATGTAGATGGG; target sequence plus PAM, further chemistry not given here; listed as Homo sapiens)
UMPS locus
  ICE InDels (%): 45%
  ICE-D InDels (%): 43%

## UMPS-6: sgRNA for UMPS exon 1, target sequence + PAM GGCGGTCGCTCGTGCAGCTT TGG (SEQ ID NO: 6) (guide GGCGGTCGCTCGTGCAGCTTTGG; listed as DNA, chemistry not given here; the letters are possibly those of the target site; listed as Homo sapiens)
UMPS locus
  ICE InDels (%): 12%
  ICE-D InDels (%): 11%

B1: UMPS-7: sgRNA for UMPS exon 1, target sequence + PAM … TGG (SEQ ID NO: 5); gRNA SEQ ID NO: 1 (nucleic acid)
guide: GCCCCGCAGAUCGAUGUAGAGUUUUAGAGCUAGAAAUAGCAAGUUAAAAUAAGGCUAGUCCGUUAUCAACUUGAAAAAGUGGCACCGAGUCGGUGCUUUU
modifications: listed as RNA, chemistry not given here
UMPS locus
  ICE InDels (%): 39%
  ICE-D InDels (%): 93%
UMPS locus; detectable by ICE-D but not by ICE or TIDE
  type of edits created: high proportion of large (greater than 30 bp) deletions
UMPS locus; initial sgRNA screening
  frequency of InDels in initial screening: highest frequency of InDels
